# Assay results from article PMC6979384, “Characterization of the plant homeodomain (PHD) reader family for their histone tail interactions” (Epigenetics & Chromatin, 2020).
# Experiments:
# Test in all cases: Histone peptide microarray
# Format in all cases: binding, human
# Settings in all cases: each array performed twice, total n = 4
# [1] = tested on: ING1
# Method in brief: (§1)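 Binding read as mean relative signal from 4 replicates; microarray held 293 synthetic histone peptides with single or combinatorial PTMs. Each GST-tagged PHD reader was applied at 0.5 μM using the optimized Petell protocol.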
# [2] = tested on: BAZ2B
# Method in brief: as §1
# [3] = tested on: PHF2
# Method in brief: as §1
# [4] = tested on: KDM5A (1)
# Method in brief: as §1
# [5] = tested on: KDM4C (TTP)
# Method in brief: as §1
# [6] = tested on: PHF23
# Method in brief: as §1
# [7] = tested on: DIDO1
# Method in brief: as §1
# [8] = tested on: KDM5B (1)
# Method in brief: as §1
# [9] = tested on: CHD4 (PPCC)
# Method in brief: as §1
# [10] = tested on: ING5
# Method in brief: as §1
# [11] = tested on: KDM5A (3)
# Method in brief: as §1
# [12] = tested on: TAF3
# Method in brief: as §1
# [13] = tested on: KDM5B (3)
# Method in brief: as §1
# [14] = tested on: CHD5 (PPCC)
# Method in brief: as §1
# [15] = tested on: MORC3 (CW)
# Method in brief: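 Purified PHD finger domains fused to GST are screened against 293 synthetic histone peptides bearing one or several post-translational modifications. The protein is used at 0.5 μM, and the signal from four replicate arrays is averaged, with standard deviation given.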
# [16] = tested on: PHF13
# Method in brief: as §1
# [17] = tested on: MLL5
# Method in brief: as §1
# [18] = tested on: ING3
# Method in brief: as §1
# [19] = tested on: KDM7A
# Method in brief: as §1
# [20] = tested on: CHD5 (PCC)
# Method in brief: as §1
# [21] = tested on: RAG2
# Method in brief: as §1
# [22] = tested on: TRIM66 (PB)
# Method in brief: as §1
# [23] = tested on: AIRE (PP)
# Method in brief: as §1
# [24] = tested on: BPTF (PB)
# Method in brief: as §1
# [25] = tested on: PHF8
# Method in brief: as §1
# [26] = tested on: PHF21A
# Method in brief: as §1
# [27] = tested on: SP140L
# Method in brief: as §1
# [28] = tested on: PHRF1 (RP)
# Method in brief: as §1
# [29] = tested on: DPF2 (PPC2W2)
# Method in brief: as §1
# [30] = tested on: ING4
# Method in brief: as §1
# [31] = tested on: ING2
# Method in brief: as §1
substance,measurement,setting,value
H3K4me3R8me2a: H3 1-20,Array Heatmap value (peptide array signal),"[1]; ING1, sheet ""Array Heatmap""",0.5333
same,Array Heatmap value (peptide array signal),"[2]; BAZ2B, sheet ""Array Heatmap""",0.3334
same,Array Heatmap value (peptide array signal),"[3]; PHF2, sheet ""Array Heatmap""",0.5013
same,Array Heatmap value (peptide array signal),"[4]; KDM5A (1), sheet ""Array Heatmap""",0.3616
same,Array Heatmap value (peptide array signal),"[5]; KDM4C (TTP), sheet ""Array Heatmap""",0.39
same,Array Heatmap value (peptide array signal),"[6]; PHF23, sheet ""Array Heatmap""",0.5109
same,Array Heatmap value (peptide array signal),"[7]; DIDO1, sheet ""Array Heatmap""",0.6362
same,Array Heatmap value (peptide array signal),"[8]; KDM5B (1), sheet ""Array Heatmap""",0.5478
same,Array Heatmap value (peptide array signal),"[9]; CHD4 (PPCC), sheet ""Array Heatmap""",0.4923
same,Array Heatmap value (peptide array signal),"[10]; ING5, sheet ""Array Heatmap""",0.2674
same,Array Heatmap value (peptide array signal),"[11]; KDM5A (3), sheet ""Array Heatmap""",0.5067
same,Array Heatmap value (peptide array signal),"[12]; TAF3, sheet ""Array Heatmap""",0.2483
same,Array Heatmap value (peptide array signal),"[13]; KDM5B (3), sheet ""Array Heatmap""",0.4037
same,Array Heatmap value (peptide array signal),"[14]; CHD5 (PPCC), sheet ""Array Heatmap""",0.4208
same,Array Heatmap value (peptide array signal),"[15]; MORC3 (CW), sheet ""Array Heatmap""",0.4123
same,Array Heatmap value (peptide array signal),"[16]; PHF13, sheet ""Array Heatmap""",0.5067
same,Array Heatmap value (peptide array signal),"[17]; MLL5, sheet ""Array Heatmap""",0.5116
same,Array Heatmap value (peptide array signal),"[18]; ING3, sheet ""Array Heatmap""",0.4064
same,Array Heatmap value (peptide array signal),"[19]; KDM7A, sheet ""Array Heatmap""",0.3319
same,Array Heatmap value (peptide array signal),"[20]; CHD5 (PCC), sheet ""Array Heatmap""",0.6343
same,Array Heatmap value (peptide array signal),"[21]; RAG2, sheet ""Array Heatmap""",0.2561
same,Array Heatmap value (peptide array signal),"[22]; TRIM66 (PB), sheet ""Array Heatmap""",0.5377
same,Array Heatmap value (peptide array signal),"[23]; AIRE (PP), sheet ""Array Heatmap""",0.3453
same,Array Heatmap value (peptide array signal),"[24]; BPTF (PB), sheet ""Array Heatmap""",0.2864
same,Array Heatmap value (peptide array signal),"[25]; PHF8, sheet ""Array Heatmap""",0.377
same,Array Heatmap value (peptide array signal),"[26]; PHF21A, sheet ""Array Heatmap""",0.4017
same,Array Heatmap value (peptide array signal),"[27]; SP140L, sheet ""Array Heatmap""",0.3243
same,Array Heatmap value (peptide array signal),"[28]; PHRF1 (RP), sheet ""Array Heatmap""",0.4161
same,Array Heatmap value (peptide array signal),"[29]; DPF2 (PPC2W2), sheet ""Array Heatmap""",0.6137
same,Array Heatmap value (peptide array signal),"[30]; ING4, sheet ""Array Heatmap""",0.3653
same,Array Heatmap value (peptide array signal),"[31]; ING2, sheet ""Array Heatmap""",0.6387
H3K9ac + K14ac + K18ac: H3 1-20,Array Heatmap signal (histone peptide microarray),"[1]; GST-tagged ING1, sheet Array Heatmap",0.5813
same,Array Heatmap signal (histone peptide microarray),"[2]; GST-tagged BAZ2B, sheet Array Heatmap",0.6427
same,Array Heatmap signal (histone peptide microarray),"[3]; GST-tagged PHF2, sheet Array Heatmap",0.5699
same,Array Heatmap signal (histone peptide microarray),"[4]; GST-tagged KDM5A (1), sheet Array Heatmap",0.4668
same,Array Heatmap signal (histone peptide microarray),"[5]; GST-tagged KDM4C (TTP = Tandem Tudor domain + PHD), sheet Array Heatmap",0.4368
same,Array Heatmap signal (histone peptide microarray),"[6]; GST-tagged PHF23, sheet Array Heatmap",0.5614
same,Array Heatmap signal (histone peptide microarray),"[7]; GST-tagged DIDO1, sheet Array Heatmap",0.777
same,Array Heatmap signal (histone peptide microarray),"[8]; GST-tagged KDM5B (1), sheet Array Heatmap",0.5879
same,Array Heatmap signal (histone peptide microarray),"[9]; GST-tagged CHD4 (PPCC = Dual PHD + Dual Chromodomain), sheet Array Heatmap",0.6424
same,Array Heatmap signal (histone peptide microarray),"[10]; GST-tagged ING5, sheet Array Heatmap",0.3256
same,Array Heatmap signal (histone peptide microarray),"[11]; GST-tagged KDM5A (3), sheet Array Heatmap",0.5902
same,Array Heatmap signal (histone peptide microarray),"[12]; GST-tagged TAF3, sheet Array Heatmap",0.2816
same,Array Heatmap signal (histone peptide microarray),"[13]; GST-tagged KDM5B (3), sheet Array Heatmap",0.4869
same,Array Heatmap signal (histone peptide microarray),"[14]; GST-tagged CHD5 (PPCC = Dual PHD + Dual Chromodomain), sheet Array Heatmap",0.5238
same,Array Heatmap signal (histone peptide microarray),"[15]; GST-tagged MORC3 (CW = CW-type Zn-finger), sheet Array Heatmap",0.5442
same,Array Heatmap signal (histone peptide microarray),"[16]; GST-tagged PHF13, sheet Array Heatmap",0.5825
same,Array Heatmap signal (histone peptide microarray),"[17]; GST-tagged MLL5, sheet Array Heatmap",0.5367
same,Array Heatmap signal (histone peptide microarray),"[18]; GST-tagged ING3, sheet Array Heatmap",0.4687
same,Array Heatmap signal (histone peptide microarray),"[19]; GST-tagged KDM7A, sheet Array Heatmap",0.3112
same,Array Heatmap signal (histone peptide microarray),"[20]; GST-tagged CHD5 (PCC = PHD + Dual Chromodomain), sheet Array Heatmap",0.8362
same,Array Heatmap signal (histone peptide microarray),"[21]; GST-tagged RAG2, sheet Array Heatmap",0.2782
same,Array Heatmap signal (histone peptide microarray),"[22]; GST-tagged TRIM66 (PB = PHD + Bromodomain), sheet Array Heatmap",0.7029
same,Array Heatmap signal (histone peptide microarray),"[23]; GST-tagged AIRE (PP), sheet Array Heatmap",0.4138
same,Array Heatmap signal (histone peptide microarray),"[24]; GST-tagged BPTF (PB = PHD + Bromodomain), sheet Array Heatmap",0.3483
same,Array Heatmap signal (histone peptide microarray),"[25]; GST-tagged PHF8, sheet Array Heatmap",0.3679
same,Array Heatmap signal (histone peptide microarray),"[26]; GST-tagged PHF21A, sheet Array Heatmap",0.4657
same,Array Heatmap signal (histone peptide microarray),"[27]; GST-tagged SP140L, sheet Array Heatmap",0.346
same,Array Heatmap signal (histone peptide microarray),"[28]; GST-tagged PHRF1 (RP), sheet Array Heatmap",0.8654
same,Array Heatmap signal (histone peptide microarray),"[29]; GST-tagged DPF2 (PPC2W2 = Dual PHD + C2W2-type Zn-finger), sheet Array Heatmap",0.8971
same,Array Heatmap signal (histone peptide microarray),"[30]; GST-tagged ING4, sheet Array Heatmap",0.4438
same,Array Heatmap signal (histone peptide microarray),"[31]; GST-tagged ING2, sheet Array Heatmap",0.62
